# Source: US6812377B2, “Genetic engineering of syringyl-enriched lignin in plants” (Board of Control of Michigan Technological University, priority 2000, dated 2004)
# How the values were obtained:
# [1] = biological target: T1, recombinant PtCAD protein (Populus tremuloides, UniProt Q9M632); assay: Kinetic properties of the recombinant PtCAD protein (HPLC-UV/MS); format: biochemical; details: substrate of PtCAD; relative, coniferaldehyde = 100
# Experimental: (§1) To characterize the enzyme pH optima, the substrate and recombinant PtCAD or PtSAD protein concentrations described above were used in sodium phosphate buffers, pH 5 to 8.5. […] For inhibition kinetics, the PtCAD-mediated reduction of sinapaldehyde (1 to 200 μM) was assayed in the presence of 1 to 5 μM coniferaldehyde, and the PtSAD-catalyzed reduction of coniferaldehyde (1 to 200 μM) was assayed in the presence of 1 to 5 μM sinapaldehyde. All reactions were terminated by the addition of 10 μL of 6 N HCI (to bring the pH to 2) and 500 ng of internal standard o-coumaric acid and analyzed by HPLC-UV/MS. An aliquot of 100 μL of reaction mixture was injected directly onto a Supelcosil LC-ABZ column (15 cm×4.6 mm×5 μm; Supelco, Bellefonte, Pa.) with automatic sample injection and separated isocratically with a Hewlett-Packard (HP) 1100 liquid chromatography system at 40° C. and a flow rate of 0.25 mL/min. […] The reaction products were identified and confirmed by comparing the ion fragmentation patterns of the product and the authentic standard in MS scanning mode at 70 V. The product quantity and Km, Vmax, kcat, and apparent inhibition constant (Ki) values (means±SE) were determined as described (Osakabe et al., 1999; Li et al., 2000). The results of the inhibition kinetics for both the CAD enzyme (i.e. Table 2) and the SAD enzyme (i.e., Table 3) using a variety of substrates are illustrated below.
# [2] = biological target: recombinant PtSAD protein (Populus tremuloides, UniProt Q94G59); assay: Kinetic properties of the recombinant PtSAD protein (HPLC-UV/MS); format: biochemical; details: substrate of PtSAD; relative, sinapaldehyde = 100
# Chain of recombinant PtSAD protein (Q94G59 entry or part of it): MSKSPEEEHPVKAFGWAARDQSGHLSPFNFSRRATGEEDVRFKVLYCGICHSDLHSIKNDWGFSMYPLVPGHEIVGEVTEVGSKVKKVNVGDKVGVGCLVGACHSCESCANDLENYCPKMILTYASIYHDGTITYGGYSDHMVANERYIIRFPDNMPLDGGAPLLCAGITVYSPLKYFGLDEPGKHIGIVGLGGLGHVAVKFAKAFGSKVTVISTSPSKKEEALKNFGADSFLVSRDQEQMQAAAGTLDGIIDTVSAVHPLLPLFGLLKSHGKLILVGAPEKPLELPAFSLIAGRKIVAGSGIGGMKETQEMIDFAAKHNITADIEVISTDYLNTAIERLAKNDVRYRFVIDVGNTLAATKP
# Experimental: as §1
# [3] = test system: PtSAD recombinant protein; assay: SAD enzyme activity assay, single and mixed substrates (HPLC-MS); format: biochemical, Populus tremuloides; details: mixture of coniferaldehyde and sinapaldehyde, pH 7.0
# Experimental: After 10 min at 30° C., the reaction was terminated and extracted with 0.5 ml ethyl acetate. The extraction was repeated 4 times and the combined ethyl acetate was evaporated and dissolved in the HPLC mobile phase for LC-MS identification and quantitation of the reaction products as we did before (Osakabe et al., 1999; Li et al. 2000). […] The SAD reactions with mixed substrates, sinapaldehyde and coniferyl aldehyde, were therefore conducted at the optimal pH 7.0 under above-described conditions. […] To characterize the enzyme pH optima, the substrate and recombinant PtCAD or PtSAD protein concentrations described above were used in sodium phosphate buffers, pH 5 to 8.5. All reactions were for 10 minutes at 30° C. An aliquot of 100 μL of reaction mixture was injected directly onto a Supelcosil LC-ABZ column (15 cm×4.6 mm×5 μm; Supelco, Bellefonte, Pa.) with automatic sample injection and separated isocratically with a Hewlett-Packard (HP) 1100 liquid chromatography system at 40° C. and a flow rate of 0.25 mL/min. […] The reaction products were identified and confirmed by comparing the ion fragmentation patterns of the product and the authentic standard in MS scanning mode at 70 V. The product quantity and Km, Vmax, kcat, and apparent inhibition constant (Ki) values (means±SE) were determined as described (Osakabe et al., 1999; Li et al., 2000). The results of the inhibition kinetics for both the CAD enzyme (i.e. Table 2) and the SAD enzyme (i.e., Table 3) using a variety of substrates are illustrated below.
# [4] = biological target: T1, recombinant PtCAD protein; assay: PtCAD enzyme activity with a mixture of coniferaldehyde and sinapaldehyde (HPLC-MS); format: biochemical
# From the text: A guaiacyl pathway gene encoding coniferyl alcohol dehydrogenase (CAD, FIG. 1) from Populus tremuloides (GenBank #AF217957) was first cloned. This cDNA was designated as PtCAD (GenBank #AF217957). E. coli-expressed recombinant PtCAD protein was characterized for its catalytic activity with coniferaldehyde and sinapaldehyde. Because monolignol biosynthetic pathway intermediates are present together in lignifying tissues (Osakabe et al., 1999; Li et al. 2000), the PtCAD enzyme activity with a mixture of coniferaldehyde and sinapaldehyde was assayed. As shown in FIG. 5 (a) and (c), the reaction mixture was separated by HPLC after the enzyme reaction. […]
# An aliquot of 100 μL of reaction mixture was injected directly onto a Supelcosil LC-ABZ column (15 cm×4.6 mm×5 μm; Supelco, Bellefonte, Pa.) with automatic sample injection and separated isocratically with a Hewlett-Packard (HP) 1100 liquid chromatography system at 40° C. and a flow rate of 0.25 mL/min. […] The reaction products were identified and confirmed by comparing the ion fragmentation patterns of the product and the authentic standard in MS scanning mode at 70 V. The product quantity and Km, Vmax, kcat, and apparent inhibition constant (Ki) values (means±SE) were determined as described (Osakabe et al., 1999; Li et al., 2000). […]
# T1 sequence (Q9M632 entry or part of it): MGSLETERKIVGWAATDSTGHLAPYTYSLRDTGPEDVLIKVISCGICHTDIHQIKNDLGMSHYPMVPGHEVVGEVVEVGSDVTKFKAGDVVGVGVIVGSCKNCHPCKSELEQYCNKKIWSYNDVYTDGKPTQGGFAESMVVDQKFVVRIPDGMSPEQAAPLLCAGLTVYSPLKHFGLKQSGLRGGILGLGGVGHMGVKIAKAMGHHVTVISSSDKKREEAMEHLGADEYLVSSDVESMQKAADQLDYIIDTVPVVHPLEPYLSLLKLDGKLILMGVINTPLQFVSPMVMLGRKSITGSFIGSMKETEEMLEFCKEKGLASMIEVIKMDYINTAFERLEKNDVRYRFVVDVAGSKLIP
smiles,measurement,setting,value
COc1cc(/C=C/C=O)ccc1O [Coniferaldehyde],Vmax/Km,[1],100%
same,Vmax/Km,[2],26.6%
same,reaction of PtSAD with the substrate in a mixture,[3],would not react
same,reaction of PtCAD with the substrate in a mixture,[4],Only coniferyl alcohol was formed
